Biological target: T1, Type-1 angiotensin II receptor (Homo sapiens, UniProt P30556)
T1 sequence (P30556 whole entry): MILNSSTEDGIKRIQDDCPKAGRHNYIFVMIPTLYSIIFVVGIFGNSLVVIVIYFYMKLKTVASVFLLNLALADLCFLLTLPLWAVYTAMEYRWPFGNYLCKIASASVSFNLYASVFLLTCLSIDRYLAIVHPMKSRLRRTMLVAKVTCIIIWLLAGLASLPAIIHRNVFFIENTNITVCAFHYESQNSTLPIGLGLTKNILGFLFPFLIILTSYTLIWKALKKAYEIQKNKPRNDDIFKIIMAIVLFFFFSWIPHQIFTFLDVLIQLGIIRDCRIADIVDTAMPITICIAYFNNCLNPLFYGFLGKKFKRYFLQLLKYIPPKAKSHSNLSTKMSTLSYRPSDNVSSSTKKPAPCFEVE
Experiment: AT1 receptor antagonists, dose response, selectivity assay for APJ receptor antagonist project, cell-based, uHTS hits (AID 463214)

IC50	SMILES
34.6 µM	COc1ccc2c(c1)C(O)C(=O)[C@H](c1ccc(OC)c(Br)c1)O2 (some centres not stated)
36 µM	CCOC(=O)C1C(C)=NC2=C(C(=O)CC(c3cccs3)C2)C1c1cccs1 (configuration not stated) [2-Methyl-5-oxo-4,7-di-thiophen-2-yl-1,4,5,6,7,8-hexahydro-quinoline-3-carboxylic acid ethyl ester]
28.4 µM	COC(=O)c1[nH]nc(C(O)c2ccc(Cl)cc2)c1-c1ccc(OC)cc1 (configuration not stated) [MLS000702189]
39.9 µM	CCOC(=O)c1[nH]nc(C(O)c2ccc(Cl)cc2)c1-c1ccccc1 (configuration not stated) [SMR000271792]

The remaining lines, values behind:

SMILES	IC50
Cc1ncc(C=O)c(CNNc2ccc(C(F)(F)F)cn2)c1O	28.7 µM
Cc1[nH]n(C(N)=S)c(=O)c1N=Nc1ccc([N+](=O)[O-])cc1 [3-Methyl-4-(4-nitro-phenylazo)-5-oxo-4,5-dihydro-pyrazole-1-carbothioic acid amide]	35.3 µM
O=C1C=CC([N+](=O)[O-])=CC1CN=Nc1ccc(Cl)nn1 (configuration not stated) [SMR000184399]	3.63 µM
